Drawing on EP4667483A1, “HUMAN TRANSFERRIN RECEPTOR-BINDING PEPTIDE” (JCR Pharmaceuticals Co., Ltd., priority 2023, dated 2024), this text covers Kd for twelve compounds.

Structures are written as SMILES. Bridge positions count the residues as written; N and C are the ends. Square brackets hold non-standard residues; d marks the D form. Peptide text beside a SMILES is read from it. * marks the point of attachment. Ala(imidazo(1,2-a)pyr3yl) = N[C@@H](Cc1cnc2ccccn12)C(=O)O; Trp(1-CH2COOH) = N[C@@H](Cc1cn(CC(=O)O)c2ccccc12)C(=O)O; CH2CON(CH2CH2)2NCH2COOH = O=C(O)CN1CCN(C(=O)C*)CC1; NMePhe(4-COOH) = CN[C@@H](Cc1ccc(C(=O)O)cc1)C(=O)O; Nle(6-morpholino) = N[C@@H](CCCCN1CCOCC1)C(=O)O; Phe(3-COOH) = N[C@@H](Cc1cccc(C(=O)O)c1)C(=O)O; Trp(7-aza) = N[C@@H](Cc1c[nH]c2ncccc12)C(=O)O; NMePhe(3-Cl) = CN[C@@H](Cc1cccc(Cl)c1)C(=O)O; 3Pal(6-NH2) = Nc1ccc(C[C@H](N)C(=O)O)cn1; NMeW = CN[C@@H](Cc1c[nH]c2ccccc12)C(=O)O; Lys(N3) = [N-]=[N+]=NCCCC[C@H](N)C(=O)O; NMeY = CN[C@@H](Cc1ccc(O)cc1)C(=O)O; Nva(3-Et) = CCC(CC)[C@H](N)C(=O)O; 4Pal = N[C@@H](Cc1ccncc1)C(=O)O; PEG4 = NCCOCCOCCOCCOCCC(=O)O; Carboxymethyl = O=C(O)C*

As usually defined, the Kd is the concentration at which binding is half-saturated.

Assay [1] deals with T1, human transferrin receptor (hTfR) (Homo sapiens, UniProt P02786). As to the kind of experiment: SPR measurement under pH 6.0 conditions (Biacore T200, NTA chip, immobilized hTfR). The class given is binding. To be noted: pH 6.0, single-cycle kinetics; read-out: hTfR SPR pH6.0 KD. A general note: In SPR one partner is held on a chip, and binding of the other changes the refractive index at the surface.
T1 sequence (P02786 whole entry): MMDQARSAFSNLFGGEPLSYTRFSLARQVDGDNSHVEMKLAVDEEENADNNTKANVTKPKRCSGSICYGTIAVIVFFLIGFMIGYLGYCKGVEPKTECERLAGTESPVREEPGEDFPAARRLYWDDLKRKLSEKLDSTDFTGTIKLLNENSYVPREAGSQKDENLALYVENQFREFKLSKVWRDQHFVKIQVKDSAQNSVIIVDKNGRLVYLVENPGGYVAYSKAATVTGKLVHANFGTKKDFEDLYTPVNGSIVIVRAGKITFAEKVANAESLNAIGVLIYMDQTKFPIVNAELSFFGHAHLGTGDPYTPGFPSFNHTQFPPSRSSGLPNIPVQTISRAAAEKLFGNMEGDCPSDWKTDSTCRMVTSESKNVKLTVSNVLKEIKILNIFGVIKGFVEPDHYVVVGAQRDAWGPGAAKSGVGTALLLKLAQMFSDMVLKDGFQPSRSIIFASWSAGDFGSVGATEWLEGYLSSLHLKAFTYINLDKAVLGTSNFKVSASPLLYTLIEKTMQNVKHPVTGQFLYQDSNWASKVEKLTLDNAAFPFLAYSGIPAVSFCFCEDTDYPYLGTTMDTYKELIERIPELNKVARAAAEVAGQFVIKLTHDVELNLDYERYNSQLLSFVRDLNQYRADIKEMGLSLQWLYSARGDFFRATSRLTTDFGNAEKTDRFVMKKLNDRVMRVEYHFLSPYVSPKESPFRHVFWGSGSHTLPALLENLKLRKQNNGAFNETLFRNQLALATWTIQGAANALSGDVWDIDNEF

Assay [2] has as its target T1, human transferrin receptor (hTfR). Kind of assay: SPR measurement under pH 7.4 conditions (Biacore T200, CM3 chip, hTfR captured by His Tag antibody). It counts as binding. To be noted: pH 7.4, single-cycle kinetics; read-out: hTfR SPR pH7.4 KD.

As to `CCC(CC)[C@@H]1NC(=O)[C@H](Cc2ccc(OCC(=O)N3CCN(CC(=O)O)CC3)cc2)NC(=O)[C@H](Cc2ccc(O)cc2)NC(=O)[C@H](CC(N)=O)NC(=O)[C@H](Cc2cn(CC(=O)O)c3ccccc23)NC(=O)[C@H](C(C)C)NC(=O)[C@H](Cc2cccc(Cl)c2)N(C)C(=O)[C@H](C(C)C)NC(=O)[C@H](C)NC(=O)CSC[C@@H](C(=O)NCCOCCOCCOCCOCCC(N)=O)NC(=O)[C@H](Cc2ccc(C(=O)O)cc2)N(C)C(=O)[C@H](Cc2cccc(C(=O)O)c2)NC(=O)[C@H](CCCCN2CCOCC2)NC(=O)[C@H](CCCCN2CCOCC2)NC(=O)[C@H]([C@@H](C)CC)NC1=O` [compound 55] ({CH2CO}-AV[NMePhe(3-Cl)]V[Trp(1-CH2COOH)]NYY(CH2CON(CH2CH2)2NCH2COOH)[Nva(3-Et)]I[Nle(6-morpholino)][Nle(6-morpholino)][Phe(3-COOH)][NMePhe(4-COOH)]C[PEG4]-NH2; thioether N-15), the Kd in assay [1] was determined as 38.5 nM; in assay [2], 26.4 nM.

Consider `CCC(CC)[C@@H]1NC(=O)[C@H](Cc2ccc(OCC(=O)N3CCN(CC(=O)O)CC3)cc2)NC(=O)[C@H](Cc2ccc(O)cc2)NC(=O)[C@H](CC(N)=O)NC(=O)[C@H](Cc2cn(CC(=O)O)c3ccccc23)NC(=O)[C@H](C(C)C)NC(=O)[C@H](Cc2cccc(Cl)c2)N(C)C(=O)[C@H](C(C)C)NC(=O)[C@H](C)NC(=O)CSC[C@@H](C(=O)NCCOCCOCCOCCOCCC(N)=O)NC(=O)[C@H](Cc2ccc(C(=O)O)cc2)N(C)C(=O)[C@H](Cc2ccncc2)NC(=O)[C@H](CCCCN2CCOCC2)NC(=O)[C@H](CCCCN2CCOCC2)NC(=O)[C@H]([C@@H](C)CC)NC1=O` [compound 56] ({CH2CO}-AV[NMePhe(3-Cl)]V[Trp(1-CH2COOH)]NYY(CH2CON(CH2CH2)2NCH2COOH)[Nva(3-Et)]I[Nle(6-morpholino)][Nle(6-morpholino)][4Pal][NMePhe(4-COOH)]C[PEG4]-NH2; thioether N-15), for which the Kd turned out to be 72 nM in assay [1] and 12.6 nM in assay [2].

As for `CC[C@H](C)[C@@H]1NC(=O)[C@H](Cc2ccc(OC)cc2)NC(=O)[C@H](Cc2ccc(N)nc2)NC(=O)[C@H](CC(N)=O)NC(=O)[C@H](Cc2c[nH]c3ccccc23)NC(=O)[C@H](C(C)C)NC(=O)[C@H](Cc2cccc(Cl)c2)N(C)C(=O)[C@H](C(C)C)NC(=O)[C@H](C)NC(=O)CSC[C@@H](C(=O)NCCOCCOCCOCCOCCC(N)=O)NC(=O)[C@H](Cc2ccc(O)cc2)N(C)C(=O)[C@H](Cc2ccncc2)NC(=O)[C@H](CCCNC(=N)N)NC(=O)[C@H](CCCCN)NC(=O)[C@H]([C@@H](C)CC)NC1=O` [compound 57] ({CH2CO}-AV[NMePhe(3-Cl)]VWN[3Pal(6-NH2)]Y(Me)IIKR[4Pal][NMeY]C[PEG4]-NH2; thioether N-15), the Kd in assay [1] amounted to 5.4 nM; in assay [2], 0.971 nM.

On to `CC[C@H](C)[C@@H]1NC(=O)[C@H](Cc2ccc(OC)cc2)NC(=O)[C@H](Cc2ccc(N)nc2)NC(=O)[C@H](CC(N)=O)NC(=O)[C@H](Cc2c[nH]c3ccccc23)N(C)C(=O)[C@H](C(C)C)NC(=O)[C@H](Cc2cccc(Cl)c2)N(C)C(=O)[C@H](C(C)C)NC(=O)[C@H](C)NC(=O)CSC[C@@H](C(=O)NCCOCCOCCOCCOCCC(N)=O)NC(=O)[C@H](Cc2ccc(O)cc2)N(C)C(=O)[C@H](Cc2ccncc2)NC(=O)[C@H](CCCNC(=N)N)NC(=O)[C@H](CCCCN)NC(=O)[C@H]([C@@H](C)CC)NC1=O` [compound 58] ({CH2CO}-AV[NMePhe(3-Cl)]V[NMeW]N[3Pal(6-NH2)]Y(Me)IIKR[4Pal][NMeY]C[PEG4]-NH2; thioether N-15), for which the figures for the Kd in assay [1] and in assay [2] were 5.39 nM and 1.34 nM, respectively.

In the case of `CC[C@H](C)[C@@H]1NC(=O)[C@H](Cc2ccc(OC)cc2)NC(=O)[C@H](Cc2ccc(N)nc2)NC(=O)[C@H](CC(N)=O)NC(=O)[C@H](Cc2c[nH]c3ccccc23)NC(=O)[C@H](C(C)C)NC(=O)[C@H](Cc2cccc(Cl)c2)N(C)C(=O)[C@H](C(C)C)NC(=O)[C@H](C)NC(=O)CSC[C@@H](C(=O)NCCOCCOCCOCCOCCC(N)=O)NC(=O)[C@H](Cc2ccc(C(=O)O)cc2)N(C)C(=O)[C@H](Cc2ccncc2)NC(=O)[C@H](CCCNC(=N)N)NC(=O)[C@H](CCCCN)NC(=O)[C@H]([C@@H](C)CC)NC1=O` [compound 59] ({CH2CO}-AV[NMePhe(3-Cl)]VWN[3Pal(6-NH2)]Y(Me)IIKR[4Pal][NMePhe(4-COOH)]C[PEG4]-NH2; thioether N-15), the results for the dissociation constant (Kd) in assay [1] and in assay [2] were 9.57 nM and 1.46 nM, respectively.

Consider `CC[C@H](C)[C@@H]1NC(=O)[C@H](Cc2ccc(OC)cc2)NC(=O)[C@H](Cc2ccc(N)nc2)NC(=O)[C@H](CC(N)=O)NC(=O)[C@H](Cc2c[nH]c3ccccc23)N(C)C(=O)[C@H](C(C)C)NC(=O)[C@H](Cc2cccc(Cl)c2)N(C)C(=O)[C@H](C(C)C)NC(=O)[C@H](C)NC(=O)CSC[C@@H](C(=O)NCCOCCOCCOCCOCCC(N)=O)NC(=O)[C@H](Cc2ccc(C(=O)O)cc2)N(C)C(=O)[C@H](Cc2ccncc2)NC(=O)[C@H](CCCNC(=N)N)NC(=O)[C@H](CCCCN)NC(=O)[C@H]([C@@H](C)CC)NC1=O` [compound 60] ({CH2CO}-AV[NMePhe(3-Cl)]V[NMeW]N[3Pal(6-NH2)]Y(Me)IIKR[4Pal][NMePhe(4-COOH)]C[PEG4]-NH2; thioether N-15), for which the Kd was determined as 4.71 nM in assay [1] and 0.755 nM in assay [2].

Regarding `CC[C@H](C)[C@@H]1NC(=O)[C@H](Cc2ccc(OCC(=O)O)cc2)NC(=O)[C@H](Cc2ccc(O)cc2)NC(=O)[C@H](CC(N)=O)NC(=O)[C@H](Cc2c[nH]c3ncccc23)NC(=O)[C@H](C(C)C)NC(=O)[C@H](Cc2cccc(Cl)c2)N(C)C(=O)[C@H](C(C)C)NC(=O)[C@H](C)NC(=O)CSC[C@@H](C(=O)NCCOCCOCCOCCOCCC(N)=O)NC(=O)[C@H](Cc2ccc(O)cc2)N(C)C(=O)[C@H](Cc2ccncc2)NC(=O)[C@H](CCCNC(=N)N)NC(=O)[C@H](CCC(=O)NCCOCCOCCOCCOCCOCCOCCOCCOCCC(=O)O)NC(=O)[C@H]([C@@H](C)CC)NC1=O` [compound 62], the Kd came to 92.1 nM in assay [1] and 28.5 nM in assay [2].

`CC[C@H](C)[C@@H]1NC(=O)[C@H](Cc2ccc(OCC(=O)O)cc2)NC(=O)[C@H](Cc2ccc(O)cc2)NC(=O)[C@H](CC(N)=O)NC(=O)[C@H](Cc2c[nH]c3ncccc23)NC(=O)[C@H](C(C)C)NC(=O)[C@H](Cc2cccc(Cl)c2)N(C)C(=O)[C@H](C(C)C)NC(=O)[C@H](C)NC(=O)CSC[C@@H](C(=O)NCCOCCOCCOCCOCCC(N)=O)NC(=O)[C@H](Cc2ccc(O)cc2)N(C)C(=O)[C@H](Cc2ccncc2)NC(=O)[C@H](CCCNC(=N)N)NC(=O)[C@H](CCC(=O)NCCOCCOCCOCCOCCC(=O)O)NC(=O)[C@H]([C@@H](C)CC)NC1=O` [compound 63]: the values for the Kd in assay [1] and in assay [2] were 87.7 nM and 23.6 nM, respectively.

In the case of `CC[C@H](C)[C@@H]1NC(=O)[C@H](Cc2ccc(OC)cc2)NC(=O)[C@H](Cc2ccc(N)nc2)NC(=O)[C@H](CC(N)=O)NC(=O)[C@H](Cc2cnc3ccccn23)NC(=O)[C@H](C(C)C)NC(=O)[C@H](Cc2cccc(Cl)c2)N(C)C(=O)[C@H](C(C)C)NC(=O)[C@H](C)NC(=O)CSC[C@@H](C(=O)NCCOCCOCCOCCOCCC(N)=O)NC(=O)[C@H](Cc2ccc(O)cc2)N(C)C(=O)[C@H](Cc2ccncc2)NC(=O)[C@H](CCCNC(=N)N)NC(=O)[C@H](CCCNC(=N)N)NC(=O)[C@H]([C@@H](C)CC)NC1=O` [compound 65] ({CH2CO}-AV[NMePhe(3-Cl)]V[Ala(imidazo(1,2-a)pyr3yl)]N[3Pal(6-NH2)]Y(Me)IIRR[4Pal][NMeY]C[PEG4]-NH2; thioether N-15), the figures for the Kd in assay [1] and in assay [2] were 56.5 nM and 5.43 nM, respectively.

For the compound `CC[C@H](C)[C@@H]1NC(=O)[C@H](Cc2ccc(OC)cc2)NC(=O)[C@H](Cc2ccc(N)nc2)NC(=O)[C@H](CC(N)=O)NC(=O)[C@H](Cc2c[nH]c3ncccc23)NC(=O)[C@H](C(C)C)NC(=O)[C@H](Cc2cccc(Cl)c2)N(C)C(=O)[C@H](C(C)C)NC(=O)[C@H](C)NC(=O)CSC[C@@H](C(=O)NCC(=O)N[C@@H](CCCCN=[N+]=[N-])C(N)=O)NC(=O)[C@H](Cc2ccc(O)cc2)N(C)C(=O)[C@H](Cc2ccncc2)NC(=O)[C@H](CCCNC(=N)N)NC(=O)[C@H](CCCNC(=N)N)NC(=O)[C@H]([C@@H](C)CC)NC1=O` [compound 66], the Kd was found to be 16.1 nM in assay [1] and 2.27 nM in assay [2].

With `CCC(CC)[C@@H]1NC(=O)[C@H](Cc2ccc(OCC(=O)O)cc2)NC(=O)[C@H](Cc2ccc(O)cc2)NC(=O)[C@H](CC(N)=O)NC(=O)[C@H](Cc2cnc3ccccn23)NC(=O)[C@H](C(C)C)NC(=O)[C@H](Cc2cccc(Cl)c2)N(C)C(=O)[C@H](C(C)C)NC(=O)[C@H](C)NC(=O)CSC[C@@H](C(=O)NCC(=O)N[C@@H](CCCCN=[N+]=[N-])C(N)=O)NC(=O)[C@H](Cc2ccc(O)cc2)N(C)C(=O)[C@H](Cc2cccc(C(=O)O)c2)NC(=O)[C@H](CCCNC(=N)N)NC(=O)[C@H](CCC(N)=O)NC(=O)[C@H]([C@@H](C)CC)NC1=O` [compound 67] ({CH2CO}-AV[NMePhe(3-Cl)]V[Ala(imidazo(1,2-a)pyr3yl)]NYY(Carboxymethyl)[Nva(3-Et)]IQR[Phe(3-COOH)][NMeY]CG[Lys(N3)]-NH2; thioether N-15), the results for the Kd in assay [1] and in assay [2] were 444 nM and 21.6 nM, respectively.

Turning to `CC[C@H](C)[C@@H]1NC(=O)[C@H](Cc2ccc(OC)cc2)NC(=O)[C@H](Cc2ccc(N)nc2)NC(=O)[C@H](CC(N)=O)NC(=O)[C@H](Cc2c[nH]c3ncccc23)NC(=O)[C@H](C(C)C)NC(=O)[C@H](Cc2cccc(Cl)c2)N(C)C(=O)[C@H](C(C)C)NC(=O)[C@H](C)NC(=O)CSC[C@@H](C(=O)NCC(=O)N[C@@H](CCCCN=[N+]=[N-])C(N)=O)NC(=O)[C@H](Cc2ccc(O)cc2)N(C)C(=O)[C@H](Cc2ccncc2)NC(=O)[C@H](CCCCN2CCOCC2)NC(=O)[C@H](CCCCN2CCOCC2)NC(=O)[C@H]([C@@H](C)CC)NC1=O` [compound 68] ({CH2CO}-AV[NMePhe(3-Cl)]V[Trp(7-aza)]N[3Pal(6-NH2)]Y(Me)II[Nle(6-morpholino)][Nle(6-morpholino)][4Pal][NMeY]CG[Lys(N3)]-NH2; thioether N-15), the dissociation constant (Kd) in assay [1] amounted to 12.4 nM; in assay [2], 2.06 nM.
